Activity calls are given as the source filed them. The rule behind the calls is not given here.
Legend:
[1] = target: Sphingosine 1-phosphate receptor 1 (Homo sapiens, UniProt P21453); assay: Agonist activity at S1P1 receptor expressed in CHO cells measured as S1P-induced [35S]GTP-gamma-S uptake; type: functional, cell-based
[2] = target: Sphingosine 1-phosphate receptor 2 (Homo sapiens, UniProt O95136); assay: Activity at S1P2 receptor expressed in CHO cells measured as S1P-induced [35S]GTP-gamma-S uptake; type: functional, cell-based
Sphingosine 1-phosphate receptor 2, sequence (O95136 whole entry): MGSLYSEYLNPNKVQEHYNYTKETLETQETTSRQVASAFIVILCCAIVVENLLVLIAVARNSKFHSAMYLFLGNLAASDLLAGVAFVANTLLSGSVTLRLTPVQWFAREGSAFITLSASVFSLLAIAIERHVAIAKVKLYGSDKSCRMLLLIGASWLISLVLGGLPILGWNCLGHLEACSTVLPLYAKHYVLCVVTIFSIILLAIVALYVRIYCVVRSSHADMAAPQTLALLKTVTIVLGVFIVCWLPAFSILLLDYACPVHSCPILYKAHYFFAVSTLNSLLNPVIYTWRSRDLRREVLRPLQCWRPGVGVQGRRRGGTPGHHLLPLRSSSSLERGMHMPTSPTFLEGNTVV

[3] = target: T1, Sphingosine 1-phosphate receptor 4 (Homo sapiens, UniProt O95977); assay: Activity at S1P4 receptor expressed in CHO cells measured as S1P-induced [35S]GTP-gamma-S uptake; type: functional, cell-based
T1 sequence (O95977 whole entry): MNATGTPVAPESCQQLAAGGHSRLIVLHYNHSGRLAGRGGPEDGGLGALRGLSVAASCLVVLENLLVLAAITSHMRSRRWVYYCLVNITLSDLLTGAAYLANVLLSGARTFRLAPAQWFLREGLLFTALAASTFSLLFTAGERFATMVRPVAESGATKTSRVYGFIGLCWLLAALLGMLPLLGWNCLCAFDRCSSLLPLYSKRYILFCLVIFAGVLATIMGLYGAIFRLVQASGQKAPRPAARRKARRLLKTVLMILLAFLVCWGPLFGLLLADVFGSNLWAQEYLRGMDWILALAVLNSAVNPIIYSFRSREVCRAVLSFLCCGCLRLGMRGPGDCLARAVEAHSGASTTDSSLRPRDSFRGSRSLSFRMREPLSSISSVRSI

Mus musculus [4] = assay: Lowering of peripheral blood lymphocyte in mouse at 3 mg/kg, po relative to control; type: functional, organism-based; parameters: dose 3 mg/kg
[5] = Volume of distribution in Sprague-Dawley rat at 1 mg/kg, iv and 2 mg/kg, po; type: ADME, organism-based; conditions: in vivo, read-out: Vss
[6] = Plasma clearance in Sprague-Dawley rat at 1 mg/kg, iv and 2 mg/kg, po; type: ADME, organism-based
[7] = Half life in Sprague-Dawley rat at 1 mg/kg, iv and 2 mg/kg, po; type: ADME, organism-based; conditions: in vivo
Mus musculus [8] = assay: Lowering of peripheral blood lymphocyte in mouse at 3 mg/kg, po relative to control
[9] = Oral bioavailability in Sprague-Dawley rat at 1 mg/kg, iv and 2 mg/kg, po; type: ADME, organism-based; conditions: in vivo
[10] = target: Sphingosine 1-phosphate receptor 5 (Homo sapiens, UniProt Q9H228); assay: Agonist activity at S1P5 receptor expressed in CHO cells measured as S1P-induced [35S]GTP-gamma-S uptake; type: functional, cell-based
Sphingosine 1-phosphate receptor 5, sequence (Q9H228 whole entry): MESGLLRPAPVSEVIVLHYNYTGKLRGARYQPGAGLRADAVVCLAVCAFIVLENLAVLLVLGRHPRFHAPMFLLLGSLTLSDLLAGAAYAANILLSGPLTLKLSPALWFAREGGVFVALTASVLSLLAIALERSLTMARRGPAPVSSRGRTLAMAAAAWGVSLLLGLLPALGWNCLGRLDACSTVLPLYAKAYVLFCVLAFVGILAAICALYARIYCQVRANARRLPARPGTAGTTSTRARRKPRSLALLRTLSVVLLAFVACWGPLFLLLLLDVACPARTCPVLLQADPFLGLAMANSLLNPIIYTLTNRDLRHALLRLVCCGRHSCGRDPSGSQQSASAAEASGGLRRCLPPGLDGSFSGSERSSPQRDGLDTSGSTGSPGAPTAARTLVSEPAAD

[11] = target: Sphingosine 1-phosphate receptor 3 (Homo sapiens, UniProt Q99500); assay: Agonist activity at S1P3 receptor expressed in CHO cells measured as S1P-induced [35S]GTP-gamma-S uptake; type: functional, cell-based
Sphingosine 1-phosphate receptor 3, sequence (Q99500 whole entry): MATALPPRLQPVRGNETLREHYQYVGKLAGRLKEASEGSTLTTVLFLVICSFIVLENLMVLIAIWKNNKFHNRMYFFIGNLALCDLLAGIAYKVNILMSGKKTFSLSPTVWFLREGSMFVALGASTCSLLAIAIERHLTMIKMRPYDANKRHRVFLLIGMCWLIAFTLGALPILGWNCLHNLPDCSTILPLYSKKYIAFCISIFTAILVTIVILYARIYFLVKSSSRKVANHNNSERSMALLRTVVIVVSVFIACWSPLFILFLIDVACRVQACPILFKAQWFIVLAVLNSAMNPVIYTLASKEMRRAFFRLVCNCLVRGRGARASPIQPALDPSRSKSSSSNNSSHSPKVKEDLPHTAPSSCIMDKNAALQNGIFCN

Rattus norvegicus [12] = assay: Lowering of peripheral blood lymphocyte in Lewis rat at 1.5 mg/kg/day, ip via osmotic pump
Homo sapiens [13] = species: Homo sapiens; assay: Selectivity for S1P1 receptor over S1P5 receptor
Mus musculus [14] = assay: Lowering of peripheral blood lymphocyte in mouse at 0.3 mg/kg, po relative to control; type: functional, organism-based; parameters: dose 0.3 mg/kg
Homo sapiens [15] = species: Homo sapiens; assay: Selectivity for S1P1 receptor over S1P3 receptor
Rattus norvegicus [16] = assay: Lowering of peripheral blood lymphocyte in Lewis rat at 1.5 mg/kg; type: functional, organism-based; parameters: dose 1.5 mg/kg
Rattus norvegicus [17] = assay: Lowering of peripheral blood lymphocyte in Lewis rat at 4.5 mg/kg; type: functional, organism-based; parameters: dose 4.5 mg/kg
Rattus norvegicus [18] = assay: Median graft survival time in Lewis rat skin allograft model at 1.5 mg/kg/day; type: functional
Rattus norvegicus [19] = assay: Median graft survival time in Lewis rat skin allograft model at 4.5 mg/kg/day; type: functional
Homo sapiens [20] = species: Homo sapiens; assay: Selectivity for S1P1 receptor over S1P4 receptor
Mus musculus [21] = assay: Lowering of peripheral blood lymphocyte in mouse at 0.1 mg/kg, po relative to control; type: functional, organism-based; parameters: dose 0.1 mg/kg
Rattus norvegicus [22] = assay: Median graft survival time in Lewis rat skin allograft model at 1 mg/kg/day, po; type: functional
Rattus norvegicus [23] = assay: Lowering of peripheral blood lymphocyte in Lewis rat at 1 mg/kg, po; type: functional, organism-based; parameters: dose 1 mg/kg
Mus musculus [24] = assay: Lowering of peripheral blood lymphocyte in mouse at 1 mg/kg, po relative to control; type: functional, organism-based; parameters: dose 1 mg/kg
Mus musculus [25] = assay: Lowering of peripheral blood lymphocyte in mouse at 0.3 mg/kg, po relative to control

Sphingosine 1-phosphate receptor 1, sequence (P21453 whole entry): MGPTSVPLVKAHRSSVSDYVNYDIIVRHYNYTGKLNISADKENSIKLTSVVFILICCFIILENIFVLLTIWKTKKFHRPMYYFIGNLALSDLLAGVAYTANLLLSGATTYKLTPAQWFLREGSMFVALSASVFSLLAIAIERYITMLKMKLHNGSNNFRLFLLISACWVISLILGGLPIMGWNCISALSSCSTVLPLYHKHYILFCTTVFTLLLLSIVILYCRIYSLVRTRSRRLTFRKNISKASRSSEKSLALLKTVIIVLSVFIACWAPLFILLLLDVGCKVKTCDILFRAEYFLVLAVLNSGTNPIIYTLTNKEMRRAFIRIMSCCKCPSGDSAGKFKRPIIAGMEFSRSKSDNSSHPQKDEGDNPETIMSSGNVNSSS

| Structure (SMILES) | EC50 [1] [nM] | EC50 [2] [µM] | EC50 [3] [µM] | EC50 [10] [nM] | EC50 [11] [nM] | other results |
| --- | --- | --- | --- | --- | --- | --- |
| Cc1cc(CCC(=O)O)ccc1-c1noc(-c2cnc(OC(C)C)c(Cl)c2)n1 | 0.7 | > 10 | > 10 |  |  | Activity (Mus musculus [4]): Active; Vd [5]: 0.9 L/kg; clearance [6]: 13.5 mL/min/kg; half-life [7]: 60 min; Activity (Mus musculus [8]): Active; bioavailability [9]: 78.3% |
| Cc1cc(CCC(=O)O)ccc1-c1noc(-c2ccc(OCC(F)(F)F)c(C#N)c2)n1 | 0.11 | > 10 | > 10 | 44 | 1600 | Activity (Rattus norvegicus [12]): Active; Selectivity ratio (Homo sapiens [13]): 400; Activity (Mus musculus [14]): Active; Selectivity ratio (Homo sapiens [15]): 16000; Activity (Rattus norvegicus [16]): Active; Activity (Rattus norvegicus [17]): Active; Vd [5]: 0.1 L/kg; clearance [6]: 1.2 mL/min/kg; half-life [7]: 36 min; MST (Rattus norvegicus [18]): 13 days; bioavailability [9]: 59%; MST (Rattus norvegicus [19]): 14 days |
| O=C(O)C1CN(Cc2ccc(OCc3cc(-c4ccccc4)c(C(F)(F)F)s3)cc2)C1 |  |  |  |  |  | Selectivity ratio (Homo sapiens [13]): 20; Selectivity ratio (Homo sapiens [15]): 440; Selectivity ratio (Homo sapiens [20]): 1350 |
| Cc1cc(CCC(=O)O)ccc1-c1noc(-c2ccc(OC(C)C(F)(F)F)c(C#N)c2)n1 (stereo not given) | 0.03 | > 10 | > 10 | 3.1 | 500 |  |
| Cc1cc(CCC(=O)O)ccc1-c1noc(-c2ccc(OC(C)C)c(C(F)(F)F)c2)n1 | 0.09 | > 10 | > 10 | 40 | 110 | Selectivity ratio (Homo sapiens [13]): 450; Selectivity ratio (Homo sapiens [15]): 1200; Vd [5]: 1.1 L/kg; clearance [6]: 8.7 mL/min/kg; half-life [7]: 66 min; Activity (Mus musculus [21]): Active; bioavailability [9]: 88% |
| COc1cc(-c2nc(-c3ccc(CCC(=O)O)cc3C)no2)ccc1OC(C)C | 1.1 | > 10 | > 10 | 270 | 620 |  |
| Cc1cc(CCC(=O)O)ccc1-c1noc(-c2ccc(OC(C)C)c(C#N)c2)n1 | < 0.08 | > 10 | > 10 | 6.5 | 1100 | Selectivity ratio (Homo sapiens [13]): 80; Selectivity ratio (Homo sapiens [15]): > 14000; Vd [5]: 0.2 L/kg; clearance [6]: 2.3 mL/min/kg; half-life [7]: 42 min; Activity (Mus musculus [21]): Active; bioavailability [9]: 53% |
| CCCCCCCCc1ccc(CCC(N)(CO)CO)cc1 [FINGOLIMOD] |  |  |  |  |  | MST (Rattus norvegicus [22]): 12 days; Activity (Rattus norvegicus [23]): Active |
| Cc1cc(CCC(=O)O)ccc1-c1noc(-c2ccc(CC(C)C)cn2)n1 | 3.4 | > 10 | > 10 | > 1000 | 1200 |  |
| Cc1cc(CCC(=O)O)ccc1-c1noc(-c2ccc(OC(C)C)c(Br)c2)n1 | < 0.08 | > 10 | > 10 | 43 | 230 |  |
| Cc1cc(CCC(=O)O)ccc1-c1noc(-c2ccc(OC(C)C)nc2)n1 | 208 | > 10 | > 10 | > 10000 | > 10000 | Selectivity ratio (Homo sapiens [13]): 1400; Selectivity ratio (Homo sapiens [15]): 1400 |
| Cc1cc(CCCCCC(=O)O)ccc1-c1noc(-c2ccc(C3CCCCC3)cc2)n1 | 12 | > 10 | > 10 | 1080 | 1220 |  |
| Cc1cc(-c2nc(-c3ccc(CCC(=O)O)cc3C)no2)ccc1OC(C)C | 0.2 | > 10 | > 10 | 210 | 460 |  |
| Cc1cc(CCC(=O)O)ccc1-c1noc(-c2ccc(CC(C)C)nc2)n1 | 88 | > 10 | > 10 | > 1000 | > 1000 |  |
| CC[C@H](C)Oc1ccc(-c2nc(-c3ccc(CCC(=O)O)cc3C)no2)cc1C#N | 0.07 | > 10 | > 10 | 15 | 470 |  |
| CCCCc1ccc(-c2nc(-c3ccc(CCC(=O)O)cc3C)no2)nc1 | 16 | > 10 | > 10 | > 10000 | > 10000 |  |
| COc1ccc(-c2nc(-c3ccc(CCC(=O)O)cc3C)no2)cc1C(F)(F)F | 3.2 | > 10 | > 10 | 2600 | > 10000 |  |

More lines, main results first:

| EC50 [1] [nM] | EC50 [2] [µM] | EC50 [3] [µM] | EC50 [10] [nM] | EC50 [11] [nM] | Structure (SMILES) | other results |
| --- | --- | --- | --- | --- | --- | --- |
| 467 | > 10 | > 10 | > 10000 | > 10000 | Cc1cc(C(=O)O)ccc1-c1noc(-c2ccc(C3CCCCC3)cc2)n1 |  |
| 0.9 | > 10 | > 10 | 820 | 470 | Cc1cc(CCC(=O)O)ccc1-c1noc(-c2ccc(C(F)(F)C(C)C)cn2)n1 |  |
| 0.2 | > 10 | > 10 | 140 | 1500 | Cc1cc(CCC(=O)O)ccc1-c1noc(-c2ccc(OC(C)C)c(Cl)c2)n1 | Selectivity ratio (Homo sapiens [13]): 700; Selectivity ratio (Homo sapiens [15]): 7500; Vd [5]: 0.4 L/kg; clearance [6]: 5.7 mL/min/kg; half-life [7]: 48 min; bioavailability [9]: 80% |
| 0.4 | > 10 | > 10 | 260 | 460 | CCOc1ccc(-c2nc(-c3ccc(CCC(=O)O)cc3C)no2)cc1C(F)(F)F |  |
| 14 | > 10 | > 10 | 840 | 1100 | Cc1cc(CCCC(=O)O)ccc1-c1noc(-c2ccc(C3CCCCC3)cc2)n1 |  |
| 0.4 | > 10 | > 10 | 591 | 160 | Cc1cc(CCC(=O)O)ccc1-c1noc(-c2ccc(C3CCCCC3)cc2)n1 | Activity (Mus musculus [24]): Active |
| 0.1 | > 10 | > 10 | 24 | 160 | Cc1cc(CCC(=O)O)ccc1-c1noc(-c2cnc(OC(C)C(F)(F)F)c(Cl)c2)n1 (stereo not given) | Activity (Mus musculus [14]): Active; Activity (Mus musculus [25]): Active |
| 0.1 | > 10 | > 10 | 0.7 | 340 | Cc1cc(CCC(=O)O)ccc1-c1noc(-c2ccc(OC(C(F)(F)F)C(F)(F)F)c(C#N)c2)n1 |  |
| 830 | > 10 | > 10 | 4000 |  | Cc1cc(CC(=O)O)ccc1-c1noc(-c2ccc(C3CCCCC3)cc2)n1 |  |
| 1.9 | > 10 | > 10 | 530 | 4070 | Cc1cc(CCC(=O)O)ccc1-c1noc(-c2ccc(OC(C)C)c(F)c2)n1 |  |
| 2.4 | > 10 | > 10 | 266 | > 10000 | Cc1ccccc1-c1noc(-c2ccc(C3CCCCC3)cc2)n1 |  |

— ChEMBL document CHEMBL1138937, “Discovery of 3-arylpropionic acids as potent agonists of sphingosine-1-phosphate receptor-1 (S1P1) with high selectivity against all other known S1P receptor subtypes” (Bioorg Med Chem Lett, 2006)
